ChEMBL document CHEMBL3098009, “Synthesis of a novel series of artemisinin dimers with potent anticancer activity involving Sonogashira cross-coupling reaction” (2014)

Columns and labels:
Type in all cases: functional
HeLa [1] = experiment: Cytotoxicity against human HeLa cells assessed as growth inhibition at 10 uM by SRB assay; details: read-out: GI
[2] = Cytotoxicity against human prostate cancer cells assessed as growth inhibition at 50 uM by SRB assay; details: Cancer cell lines, read-out: GI
MCF7 [3] = experiment: Cytotoxicity against human MCF7 cells assessed as growth inhibition at 10 uM by SRB assay; details: read-out: GI
HeLa [4] = experiment: Cytotoxicity against human HeLa cells assessed as growth inhibition at 50 uM by SRB assay; details: read-out: GI
MCF7 [5] = experiment: Cytotoxicity against human MCF7 cells assessed as growth inhibition at 50 uM by SRB assay; details: read-out: GI
[6] = Cytotoxicity against human IMR32 cells assessed as growth inhibition at 50 uM by SRB assay; details: IMR-32, read-out: GI
A549 [7] = experiment: Cytotoxicity against human A549 cells assessed as growth inhibition at 50 uM by SRB assay; details: read-out: GI
[8] = Cytotoxicity against human IMR32 cells assessed as growth inhibition at 10 uM by SRB assay; details: IMR-32, read-out: GI
A549 [9] = experiment: Cytotoxicity against human A549 cells assessed as growth inhibition at 10 uM by SRB assay; details: read-out: GI
[10] = Cytotoxicity against human prostate cancer cells assessed as growth inhibition at 10 uM by SRB assay; details: Cancer cell lines, read-out: GI

SMILES | inhibition of growth at 10 µM (HeLa [1]) [%] | inhibition of growth at 50 µM [2] [%] | inhibition of growth at 10 µM (MCF7 [3]) [%] | inhibition of growth at 50 µM (HeLa [4]) [%] | inhibition of growth at 50 µM (MCF7 [5]) [%] | inhibition of growth at 50 µM [6] [%] | inhibition of growth at 50 µM (A549 [7]) [%] | inhibition of growth at 10 µM [8] [%] | inhibition of growth at 10 µM (A549 [9]) [%] | inhibition of growth at 10 µM [10] [%]
C[C@@H]1CC[C@H]2[C@@H](C)C(OCCC#Cc3ccc(C#CCCOC4O[C@@H]5O[C@@]6(C)CC[C@H]7[C@H](C)CC[C@@H]([C@H]4C)[C@@]57OO6)s3)O[C@@H]3O[C@@]4(C)CC[C@@H]1[C@]32OO4 (stereo partly specified) | 51 | 53 | 31 | 52 | 41 | 28 | 78 | 26 | 77 | 49
C[C@@H]1CC[C@H]2[C@@H](C)C(OCCC#Cc3cccc(C#CCCOC4O[C@@H]5O[C@@]6(C)CC[C@H]7[C@H](C)CC[C@@H]([C@H]4C)[C@@]57OO6)c3)O[C@@H]3O[C@@]4(C)CC[C@@H]1[C@]32OO4 (stereo partly specified) |  | 60 |  |  |  | 30 | 65 | 10 | 60 | 45
C[C@@H]1CC[C@H]2[C@@H](C)C(OCC#Cc3ccc(C#CCOC4O[C@@H]5O[C@@]6(C)CC[C@H]7[C@H](C)CC[C@@H]([C@H]4C)[C@@]57OO6)cc3)O[C@@H]3O[C@@]4(C)CC[C@@H]1[C@]32OO4 (stereo partly specified) | 34 | 68 | 36 | 43 | 45 | 56 | 69 | 50 | 67 | 56
C[C@@H]1CC[C@H]2[C@@H](C)C(OCC#Cc3ccc(-c4ccc(C#CCOC5O[C@@H]6O[C@@]7(C)CC[C@H]8[C@H](C)CC[C@@H]([C@H]5C)[C@@]68OO7)cc4)cc3)O[C@@H]3O[C@@]4(C)CC[C@@H]1[C@]32OO4 (stereo partly specified) | 47 | 68 | 30 | 57 | 32 | 43 | 69 | 34 | 64 | 46
C[C@@H]1CC[C@H]2[C@@H](C)C(OCC#Cc3ccc(C#CCOC4O[C@@H]5O[C@@]6(C)CC[C@H]7[C@H](C)CC[C@@H]([C@H]4C)[C@@]57OO6)s3)O[C@@H]3O[C@@]4(C)CC[C@@H]1[C@]32OO4 (stereo partly specified) | 35 | 47 | 25 | 37 | 29 | 83 | 73 | 54 | 70 | 44
C[C@@H]1CC[C@H]2[C@@H](C)C(OCC#Cc3cccc(C#CCOC4O[C@@H]5O[C@@]6(C)CC[C@H]7[C@H](C)CC[C@@H]([C@H]4C)[C@@]57OO6)c3)O[C@@H]3O[C@@]4(C)CC[C@@H]1[C@]32OO4 (stereo partly specified) |  | 65 |  |  |  | 45 | 70 | 40 | 65 | 50
C[C@@H]1CC[C@H]2[C@@H](C)C(OCCC#Cc3ccc(C#CCCOC4O[C@@H]5O[C@@]6(C)CC[C@H]7[C@H](C)CC[C@@H]([C@H]4C)[C@@]57OO6)cc3)O[C@@H]3O[C@@]4(C)CC[C@@H]1[C@]32OO4 (stereo partly specified) | 20 | 55 | 26 | 24 | 41 | 37 | 72 | 11 | 56 | 48
C[C@@H]1CC[C@H]2[C@@H](C)C(OCCC#Cc3ccc(-c4ccc(C#CCCOC5O[C@@H]6O[C@@]7(C)CC[C@H]8[C@H](C)CC[C@@H]([C@H]5C)[C@@]68OO7)cc4)cc3)O[C@@H]3O[C@@]4(C)CC[C@@H]1[C@]32OO4 (stereo partly specified) | 18 | 47 | 24 | 50 | 38 | 27 | 74 | 4 | 67 | 41
C[C@@H]1CC[C@H]2[C@@H](C)C(=O)O[C@@H]3O[C@@]4(C)CC[C@@H]1[C@]32OO4 [ARTEMISININ] | 51 | 40 | 25 | 66 | 36 | 34 | 38 | 24 | 26 | 35
COc1cccc2c1C(=O)c1c(O)c3c(c(O)c1C2=O)C[C@@](O)(C(=O)CO)C[C@@H]3O[C@H]1C[C@H](N)[C@H](O)[C@H](C)O1 [DOXORUBICIN] |  |  |  |  |  |  |  | 69 |  | 
O=c1[nH]cc(F)c(=O)[nH]1 [FLUOROURACIL] | 62 |  |  |  |  |  |  |  |  | 
CO[C@@]12[C@H](COC(N)=O)C3=C(C(=O)C(C)=C(N)C3=O)N1C[C@@H]1N[C@@H]12 [MITOMYCIN] |  |  |  |  |  |  |  |  |  | 65
CC(=O)O[C@H]1C(=O)[C@@]2(C)[C@H]([C@H](OC(=O)c3ccccc3)[C@]3(O)C[C@H](OC(=O)[C@H](O)[C@@H](NC(=O)c4ccccc4)c4ccccc4)C(C)=C1C3(C)C)[C@]1(OC(C)=O)CO[C@@H]1C[C@@H]2O [PACLITAXEL] |  |  |  |  |  |  |  |  | 56 | 
